Test results reported in US20260109721A1, “IONIZABLE CATIONIC LIPIDS INCORPORATING SILICON: SYNTHESIS AND LNP FORMULATION” (priority 2023, published 2026).
Like-named read-outs stand apart in the source and are kept apart here.

Experiments:
HeLa cells [1] = assay: Transfection efficiency with Luciferase (SecNLuc) mRNA, Nano-Glo assay (Method A); type: cell-based; details: Luc mRNA, 24 h, luminescence; for Transfection 10 ng mRNA: 10 ng mRNA/well; for Transfection 50 ng mRNA: 50 ng mRNA/well; for Transfection 100 ng mRNA: 100 ng mRNA/well
Procedure: (§1) The synthesized lipids were tested in term of in vitro transfection efficacy and toxicity on HeLa cells. In order to perform the mentioned biological tests, appropriate LNPs had to be formulated from the synthesized lipids. The formulation technique was different in Method A and B. The particle size, polydispersity index (PDI) and zeta potential of resulting LNPs were determined by means of Dynamic Light Scattering technique (DLS). Prior to biological testing the encapsulation efficiency (EE) of the loaded LNPs was determined by using RiboGreen RNA assay. In case of Method A Luc mRNA while in case of Method B GFP mRNA was transfected into the cells. In parallel with the transfection experiments, toxicity of the investigated LNPs was determined, in case of Method A resazurin assay while in case of Method B MTT assay was used. Additionally, the toxicity of the lipids was investigated on HepG2 cells and IC50 values were determined.
• 1. Prepare mRNA solution by adding 100 ng mRNA (SecNLuc, #P009024, RiboPro) to 5 μl Opti-MEM • multiply by number of wells, include different concentrations and add 10% extra • a standard set-up we use is 100 ng-50 ng-10 ng mRNA/well in triplicate, which would need […] mRNA (includes 10% extra)
• 2. (If applicable) Prepare different concentrations in Opti-MEM (for instance 100/50/10 ng). • 3. Add 10 μl to each well and mix carefully by pipetting. • 4. Mix by swirling the plate horizontally at modest speed. Reverse in direction 3 times. • 5. Incubate for 24 hours (incubator).
This protocol is applied to measure luciferase activity for secreted NanoLuc and is based on the protocol by Promega (Nano-Glo® Luciferase Assay System #N1110-1150). The protocol is designed for a 384-wells plate, but volumes can be changed accordingly for other plates.
• 1. Plate cells (HeLa) in 96-well plate, grow until 80% confluent and transfect with SecNanoLuc mRNA and incubate for the desired period (24 h). • 2. After incubation, the translated protein is accumulated in the medium. Transfer medium to a new plate or tubes. • 3. Transfer 12 μl of each sample to a black-walled, clear-bottom 384-well plate • Black-walled plates are important to prevent shine-through of luminescence from other wells; alternatively, multiple wells between samples can be left empty. • 4. Set-up plate reader • 5. Prepare the desired amount of Nano-Glo® Luciferase Assay Reagent by combining one volume of Nano-Glo® Luciferase Assay Substrate with 50 volumes of Nano-Glo® Luciferase Assay Buffer: • a. composition: 100 mM MES pH 6; 1 mM EDTA; […]; 150 mM KCl; 1 mM DTT; 35 mM Thiourea; • b. briefly spin tubes containing substrate in a microcentrifuge before use. • 6. Add and mix (by pipetting) 12 μl Nano-Glo® Luciferase Assay Reagent per well • Wait approximately 3 minutes before measuring luminescence. […] Measure luminescence in plate reader using standard protocol luciferase (this includes mixing sample in plate reader)

HepG2 cell line = assay: In vitro toxicity study on HepG2 cell line (resazurin, viability and IC50); type: cell-based, human; details: for IC50: lipid toxicity, HepG2, 48 h post-treatment, 6.25-800 μM, read-out: IC50 value, μM (on HepG2 cell)
Procedure: as §1
HepG2 cell line (human hepatocellular carcinoma) were maintained in DMEM medium supplemented with 10% FBS. Cell toxicity measurements were carried out in 384-well microtiter plates with 1000 cells seeded in each well. Test measurements were carried out in triplicate, and control measurements in quadruplicate. After an overnight incubation, the cells were treated with an increasing concentration of the test compounds (6.25, 12.5, 25, 50, 100, 200, 400, 800 μM). […] 48 h post-treatment, following visual inspection under an inverted microscope, cell viability was measured by resazurin assay. Viability of treated cells was calculated relative to that of ethanol vehicle controls. Concentration response curves (CRCs) were obtained and corresponding IC50 values were calculated where applicable and are shown in Table 9.
Resazurin reagent (Sigma-Aldrich) was dissolved in PBS (pH 7.4) at 0.15 mg/ml concentration, 0.22 μm filtered and aliquoted at −20° C., 10 μl resazurin stock solution was added to wells. After 5 hours incubation at 37° C. under 5% CO2 fluorescence (530 nm excitation/580 nm emission) was recorded on a multimode microplate reader.

HeLa cells [2] = assay: Cell viability assessment with resazurin assay (Method A); type: cell-based
Procedure: as §1
This protocol is used to determine the metabolic activity of cells as a measure for cell viability after exposure to potentially toxic substances. Resazurin is converted in mitochondria by reduction to resorufin, which has a much higher fluorescence at ˜600 nm compared to unconverted resazurin. A lower amount/percentage of conversion is correlated with reduced cellular metabolism and indirectly to cellular death and toxicity. Care must be taken with interpretation of the read-out, as 50% reduction in resazurin conversion may mean 50% reduction of cellular metabolism of 100% alive cells, or 50% of cells dead, and any combination in between.
• 1. Prepare 0.25 mg/ml stock solution resazurin in fresh cell culture medium. Resazurin is auto-reducing over time in solution, especially in medium, and fresh stocks should be prepared every 2-3 days. Stocks should be stored at 4° C. and protected from light. For HeLa cells, DMEM/F12 with 10% FCS is used. • 2. Dilute stock solution 10× in fresh cell culture medium to 0.025 mg/ml->ready for application on cells. For HeLa cells, DMEM/F12 with 10% FCS is used. • 3. Collect 96-well plate and replace cell-culture spent medium with 100 μl per well resazurin solution. Add some resazurin solution for background measurement in wells not containing cells. • 4. Incubate for 50 minutes in incubator at 37° C., 5% CO2, 95% RH. • 5. Transfer resazurin solution to a fresh 96- or 384-well plate. • 6. Measure in plate reader using 540/25 nm (excitation) and 610/40 nm (emission) using standard settings (PTM low/OD-1.0). • 7. Subtract the average background measurement from all samples. Set the average of the negative controls (well receiving OptiMEM only during transfection) to 100% and express all values as percentage of the control activity. Typically, at lower levels of treatment, elevation of metabolic activity is shown, whereas for toxic substances, at toxic concentrations sigmoidal curves can be obtained, with lower activity indicating higher toxicity.

[3] = HepG2 cells, 6.25 μM lipid, 48 h post-treatment, resazurin, relative to ethanol vehicle controls
[4] = HepG2 cells, 12.5 μM lipid, 48 h post-treatment, resazurin, relative to ethanol vehicle controls
[5] = HepG2 cells, 25 μM lipid, 48 h post-treatment, resazurin, relative to ethanol vehicle controls
[6] = HepG2 cells, 50 μM lipid, 48 h post-treatment, resazurin, relative to ethanol vehicle controls
[7] = HepG2 cells, 100 μM lipid, 48 h post-treatment, resazurin, relative to ethanol vehicle controls
[8] = HepG2 cells, 200 μM lipid, 48 h post-treatment, resazurin, relative to ethanol vehicle controls
[9] = HepG2 cells, 400 μM lipid, 48 h post-treatment, resazurin, relative to ethanol vehicle controls
[10] = HepG2 cells, 800 μM lipid, 48 h post-treatment, resazurin, relative to ethanol vehicle controls

Structure (SMILES): CCCCCCCCC(CCCCCC)C(=O)OCCCCCCN(CCCCO)CCCCCCOC(=O)C(CCCCCC)CCCCCCCC (stereo not shown) [ALC-0315, reference compound]
- Transfection 10 ng mRNA (HeLa cells [1]): 2.38E+06
- Transfection 50 ng mRNA (HeLa cells [1]): 1.22E+07
- Transfection 100 ng mRNA (HeLa cells [1]): 9.34E+06
- Viability (%) at different lipid concentrations, mean (HepG2 cell line; [3]): 76.8%
- Viability (%) at different lipid concentrations, mean (HepG2 cell line; [4]): 97.4%
- Viability (%) at different lipid concentrations, mean (HepG2 cell line; [5]): 95.4%
- Viability (%) at different lipid concentrations, mean (HepG2 cell line; [6]): 91.6%
- Viability (%) at different lipid concentrations, mean (HepG2 cell line; [7]): 84.2%
- Viability (%) at different lipid concentrations, mean (HepG2 cell line; [8]): 58.9%
- Viability (%) at different lipid concentrations, mean (HepG2 cell line; [9]): 42.9%
- Viability (%) at different lipid concentrations, mean (HepG2 cell line; [10]): 20.9%
- IC50 (HepG2 cell line; resazurin): 299 µM
- Cell Viability % (Average metabolic rate over all doses, Resazurin) (HeLa cells [2]): 97%

Structure (SMILES): CCCCC/C=C\C/C=C\CCCCCCCCOC(CCCCCN(CCO)CCO)O[Si](C)(C)OCCCCCCCC/C=C\C/C=C\CCCCC (stereo not shown) [Example 39, (21Z,24Z)-3-(2-hydroxyethyl)-11,11-dimethyl-9-(((9Z,12Z)-octadeca-9,12-dien-1-yl)oxy)-10,12-dioxa-3-aza-11-silatriaconta-21,24-dien-1-ol]
- Transfection 10 ng mRNA (HeLa cells [1]): 1.46E+05
- Transfection 50 ng mRNA (HeLa cells [1]): 1.40E+06
- Transfection 100 ng mRNA (HeLa cells [1]): 4.78E+06
- IC50 (HepG2 cell line; Homo sapiens, resazurin): 667 µM
- Viability (%) at different lipid concentrations, mean (HepG2 cell line; human, 48 h, 6.25 μM): 99.8%
- Viability (%) at different lipid concentrations, mean (HepG2 cell line; human, 48 h, 12.5 μM): 97.8%
- Viability (%) at different lipid concentrations, mean (HepG2 cell line; human, 48 h, 25 μM): 99.4%
- Viability (%) at different lipid concentrations, mean (HepG2 cell line; human, 48 h, 50 μM): 98.6%
- Viability (%) at different lipid concentrations, mean (HepG2 cell line; human, 48 h, 100 μM): 100.3%
- Viability (%) at different lipid concentrations, mean (HepG2 cell line; human, 48 h, 200 μM): 106.1%
- Viability (%) at different lipid concentrations, mean (HepG2 cell line; human, 48 h, 400 μM): 83.4%
- Viability (%) at different lipid concentrations, mean (HepG2 cell line; human, 48 h, 800 μM): 35.8%
- Cell Viability % (Average metabolic rate over all doses, Resazurin) (HeLa cells [2]; human): 102%

Structure (SMILES): CCCCC/C=C\C/C=C\CCCCCCCCO[Si](C)(C)OC(CCCCCCC/C=C\C/C=C\CCCCC)OCCCCCCN(CCO)CCO (stereo not shown) [Example 40, (23Z,26Z)-11-((8Z,11Z)-heptadeca-8,11-dien-1-yl)-3-(2-hydroxyethyl)-13,13-dimethyl-10,12,14-trioxa-3-aza-13-siladotriaconta-23,26-dien-1-ol]
- Transfection 10 ng mRNA (HeLa cells [1]): 1.47E+05
- Transfection 50 ng mRNA (HeLa cells [1]): 2.13E+06
- Transfection 100 ng mRNA (HeLa cells [1]): 8.09E+06
- Viability (%) at different lipid concentrations, mean (HepG2 cell line; [3]): 100.8%
- Viability (%) at different lipid concentrations, mean (HepG2 cell line; [4]): 97.6%
- Viability (%) at different lipid concentrations, mean (HepG2 cell line; [5]): 98.9%
- Viability (%) at different lipid concentrations, mean (HepG2 cell line; [6]): 101.8%
- Viability (%) at different lipid concentrations, mean (HepG2 cell line; [7]): 109.7%
- Viability (%) at different lipid concentrations, mean (HepG2 cell line; [8]): 115.3%
- Viability (%) at different lipid concentrations, mean (HepG2 cell line; [9]): 102.0%
- Viability (%) at different lipid concentrations, mean (HepG2 cell line; [10]): 89.0%
- IC50 (HepG2 cell line; Homo sapiens, resazurin): > 800 µM
- Cell Viability % (Average metabolic rate over all doses, Resazurin) (HeLa cells [2]; human): 100%

Structure (SMILES): CCCCC/C=C\C/C=C\CCCCCCCCOC(CCCCCCC/C=C\C/C=C\CCCCC)O[Si](C)(C)OCCCCCCN1CCN(CCCCCCO[Si](C)(C)OC(CCCCCCC/C=C\C/C=C\CCCCC)OCCCCCCCC/C=C\C/C=C\CCCCC)CC1 (stereo not shown) [Example 70, 1,4-bis((20Z,23Z)-10-((8Z,11Z)-heptadeca-8,11-dien-1-yl)-8,8-dimethyl-7,9,11-trioxa-8-silanonacosa-20,23-dien-1-yl)piperazine]
- Transfection 10 ng mRNA (HeLa cells [1]): 6.46E+02
- Transfection 50 ng mRNA (HeLa cells [1]): 5.40E+03
- Transfection 100 ng mRNA (HeLa cells [1]): 2.07E+04
- Cell Viability % (Average metabolic rate over all doses, Resazurin) (HeLa cells [2]; human): 99%

Structure (SMILES): CCCCCCCC/C=C\CCCCCCCC(OCC(CCCCCCCC)SCCCCCCCCCC)O[Si](C)(C)OCCCCCCN(CCO)CCO (stereo not shown) [Example 73, (Z)-13-(heptadec-8-en-1-yl)-3-(2-hydroxyethyl)-11,11-dimethyl-16-octyl-10,12,14-trioxa-17-thia-3-aza-11-silaheptacosan-1-ol]
- Transfection 10 ng mRNA (HeLa cells [1]): 6.90E+01
- Transfection 50 ng mRNA (HeLa cells [1]): 9.88E+02
- Transfection 100 ng mRNA (HeLa cells [1]): 4.08E+03
- Cell Viability % (Average metabolic rate over all doses, Resazurin) (HeLa cells [2]; human): 107%

Structure (SMILES): CCCCC/C=C\C/C=C\CCCCCCCCO[Si](C)(C)OC(CCCCCCC/C=C\CCCCCCCC)OCCCN(C)C (stereo not shown) [Example 81, (17Z,20Z)-5-((Z)-heptadec-8-en-1-yl)-N,N,7,7-tetramethyl-4,6,8-trioxa-7-silahexacosa-17,20-dien-1-amine]
- Transfection 10 ng mRNA (HeLa cells [1]): 1.57E+02
- Transfection 50 ng mRNA (HeLa cells [1]): 5.31E+02
- Transfection 100 ng mRNA (HeLa cells [1]): 5.71E+02
- Cell Viability % (Average metabolic rate over all doses, Resazurin) (HeLa cells [2]; human): 100%

Structure (SMILES): CCCCC/C=C\C/C=C\CCCCCCCCOC(CCCCCCC/C=C\C/C=C\CCCCC)O[Si](C)(C)O[Si](C)(C)CCCCCCN(CCO)CCO (stereo not shown) [Example 82, (24Z,27Z)-14-((8Z,11Z)-heptadeca-8,11-dien-1-yl)-3-(2-hydroxyethyl)-10,10,12,12-tetramethyl-11,13,15-trioxa-3-aza-10,12-disilatritriaconta-24,27-dien-1-ol]
- Transfection 10 ng mRNA (HeLa cells [1]): 1.16E+03
- Transfection 50 ng mRNA (HeLa cells [1]): 7.26E+03
- Transfection 100 ng mRNA (HeLa cells [1]): 3.59E+04
- Cell Viability % (Average metabolic rate over all doses, Resazurin) (HeLa cells [2]; human): 97%
